Test results from US20260000496A1, “MATERIALS AND METHODS FOR DRUG-INDUCED GINGIVAL OVERGROWTH” (Optimed Technology, Inc., priority 2019, published 2026).

How the values were obtained:
[1] = system: TGF-β secreted by HOF cells; assay: TGF-β ELISA in Human Oral Fibroblast cells; type: cell-based; settings: HOF treated with conditioned media from Oral Keratinocytes
Method: Cell Culture. Normal human oral keratinocytes (NOKSI) and fibroblast (HOF) cells were maintained in Dulbecco […] Eagle's medium (Sigma-Aldrich, St. Louis, MO, USA) supplemented with 10% fetal bovine serum (Atlas Bio-logicals, Fort Collins, CO, USA) and 100 units/mL penicillin and 100 μg/mL streptomycin (LifeTechnologies, Carlsbad, CA, USA). Cells were grown in incubator at 37° C. in a humidified chamber with 5% CO2.
Enzyme linked immunosorbent assay (ELISA). ELISA was conducted with a mouse TNF-α ELISA Kit (PeproTech, USA) and TGF-β Emax ImmunoAssay System (Promega USA) to detect the TNF-α and TGF-β respectively. After normalization of the total cells or tissue protein lysates, 20 μg protein of each sample was used for the detection of TNF-α or TGF-β. ELISA was performed according to the manufacturers' instructions. For TNF-α, 100 ng/100 μl of capture antibody was added to each well of 96 well assay plate and incubated for overnight at room temperature. Blocking buffer of 200 μl per well were added to each well and incubated for 1 hour at room temperature. […] Optical absorbing values were read at 405 and 450 nm and corrected by 650 nm. […] TMB One Solution was added for 15 minutes and the reaction were stopped using 100 μl of 1N hydrochloric acid and the absorbance at 450 nm were recorded on a plate reader. Data were analyzed using excel software. […]

[2] = system: phospho-p65; assay: Mice study #2: phospho-p65 immunoblotting of gingival samples; type: in vivo, C57BL/6 mice; settings: pattern as for Myd88 (disease higher than control and treatment)
Method: Western blot analysis. Cells were seeded in 60 mm plates with a density of 5×10^5 cells per plate and washed briefly with Dulbecco's phosphate-buffered saline (Gibco, Waltham, MA, USA). Whole cell lysates were prepared using RIPA lysis buffer containing protease inhibitor cocktail (Sigma-Aldrich). Total protein concentration was determined using the BCA reagent (Pierce, Waltham, MA, USA). 20 μg of total protein were resolved on sodium dodecyl sulfate-polyacrylamide gel electrophoresis and transferred to polyvinylidenedifluoride membrane and immunoblotted. The blots were incubated for 1 h in 1% bovine serum albumin (BSA) (Sigma-Aldrich) to block the non-specific bindings followed by over-night incubation in primary antibodies (MyD88 and pP65 from Cell Signaling Technology, and human LITAF ThermoFisher Sigma) at 4° C. on shaker. Next day, blots were washed for three times (10 min each) in Tris-buffered saline containing 1% Tween20 (TBST) followed by incubation with secondary antibody (Goat anti-rabbit IgG HRP) with 1:10,000 dilution for 1 h. […] The band intensities were quantified using software ImageJ (NIH, USA) and relative protein levels were normalized by β-actin (Cell Signaling). […] The band intensities were measured by the software ImageJ (NIH, USA), and relative protein levels were normalized by β-actin.

SMILES: Nc1nc2ncc(CNc3ccc(C(=O)N[C@@H](CCC(=O)O)C(=O)O)cc3)nc2c(=O)[nH]1 [folic acid]
- amount of TGF-β secreted by HOF cells [1]: reduce TGF-β expression
- phospho p65 expression, pattern across groups [2]: a similar pattern
